# Laboratory results taken from publication PMC12721288, “Functional expression and properties of the tick α6 homomeric nicotinic acetylcholine receptor in Xenopus laevis oocytes” (Current Research in Parasitology & Vector-borne Diseases, 2025).
# Like-named read-outs stand apart in the source and are kept apart here.
# Tests used:
# Assay type in all cases: cell-based, Ixodes ricinus
# [1] = tested on: T1, Iricα6 homomeric nicotinic acetylcholine receptor; assay: two-electrode voltage clamp in Xenopus oocytes, agonist dose-response
# T1 construct: Iricα6 homomeric receptor expressed in Xenopus laevis oocytes (co-injected with C. elegans RIC-3)
# [2] = tested on: T1, Iricα6 homomeric nicotinic acetylcholine receptor; assay: two-electrode voltage clamp in Xenopus oocytes, inhibition of ACh-evoked currents
# [3] = tested on: T1, Iricα6 homomeric nicotinic acetylcholine receptor; assay: two-electrode voltage clamp in Xenopus oocytes, agonist-like dose-response
compound,measurement,setting,value
"CC(=O)OCC[N+](C)(C)C [ACh, acetylcholine]",EC50,[1],27700 ± 2440 nM
"CO[C@H]1CC=C2CCN3CCC4=C(CC(=O)OC4)[C@]23C1 [DHβE, dihydro-β-erythroidine]",IC50,[2],1.35 nM
"CNC1(C)C2CCC(C2)C1(C)C (stereo not shown) [MECA, mecamylamine]",EC50,[3],12.6 nM
"CCN1C[C@]2(COC(=O)c3ccccc3N3C(=O)C[C@H](C)C3=O)CC[C@H](OC)[C@@]34[C@@H]5C[C@H]6[C@H](OC)[C@@H]5[C@](O)(C[C@@H]6OC)[C@@](O)([C@@H](OC)[C@H]23)[C@@H]14 [MLA, methyllicaconitine]",IC50,[2]; read-out: IC50,8.56 nM
